# Data published in patent US20100284984A1, “ADENOSINE AND ITS MIMETICS. MODULATORS, TRANSPORT INHIBITORS, AND RECEPTOR AGONISTS AS A THERAPEUTIC TOOL TO REPLACE OR IMPROVE THE EFFICACY OF DEEP BRAIN STIMULATION” (University of Rochester, priority 2007, published 2010).
# Entries after “also recorded” stand apart in the source; their conditions may differ. Counter-ions that a name gives are not always drawn. Like-named read-outs stand apart in the source and are kept apart here.
# What was measured:
# thalamic neurons [1] = experiment: HFS-induced depression of eEPSPs in thalamic slices, pharmacology; assay type: cell-based, mouse; details: 50 μM; HFS 250 μA, 100 μs, 5 sec, 20° C.
# thalamic neurons [2] = experiment: HFS-induced membrane depolarization of thalamic neurons; assay type: cell-based, mouse; details: thalamic slices during HFS
# adenosine transport = details: cited from earlier work; for Ki: adenosine transport inhibitors
# Ecto-ATPase [3] = details: Chen et al., endothelial cells; cited from earlier work
# Ecto-ATPase [4] = details: Yegutkin et al., rat liver plasma membranes; cited from earlier work
# Rat Parotid Ecto-ATPase = details: Dowd et al.; cited from earlier work
# [5] = target: S-adenosylhomocysteine hydrolase (Homo sapiens, UniProt P23526); details: cited from earlier work
# Sequence of S-adenosylhomocysteine hydrolase (P23526 whole entry): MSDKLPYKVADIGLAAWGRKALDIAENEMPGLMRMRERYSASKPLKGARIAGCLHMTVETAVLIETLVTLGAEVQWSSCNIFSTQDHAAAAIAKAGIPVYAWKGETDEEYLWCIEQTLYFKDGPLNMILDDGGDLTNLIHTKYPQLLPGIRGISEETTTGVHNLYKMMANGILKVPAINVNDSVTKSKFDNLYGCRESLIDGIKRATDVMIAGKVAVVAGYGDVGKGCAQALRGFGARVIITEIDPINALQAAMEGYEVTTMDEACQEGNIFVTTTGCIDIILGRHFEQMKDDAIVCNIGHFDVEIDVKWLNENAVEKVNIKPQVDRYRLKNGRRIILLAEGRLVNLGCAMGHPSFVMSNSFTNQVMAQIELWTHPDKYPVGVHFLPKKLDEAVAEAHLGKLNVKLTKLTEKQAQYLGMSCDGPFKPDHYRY
# [6] = target: Nucleoside Triphosphate Diphosphohydrolases; details: Gendron et al.; cited from earlier work
# adenosine kinase = adenosine kinase (Homo sapiens, UniProt P55263); details: cited from earlier work
# Sequence of adenosine kinase (P55263 whole entry, species assumed): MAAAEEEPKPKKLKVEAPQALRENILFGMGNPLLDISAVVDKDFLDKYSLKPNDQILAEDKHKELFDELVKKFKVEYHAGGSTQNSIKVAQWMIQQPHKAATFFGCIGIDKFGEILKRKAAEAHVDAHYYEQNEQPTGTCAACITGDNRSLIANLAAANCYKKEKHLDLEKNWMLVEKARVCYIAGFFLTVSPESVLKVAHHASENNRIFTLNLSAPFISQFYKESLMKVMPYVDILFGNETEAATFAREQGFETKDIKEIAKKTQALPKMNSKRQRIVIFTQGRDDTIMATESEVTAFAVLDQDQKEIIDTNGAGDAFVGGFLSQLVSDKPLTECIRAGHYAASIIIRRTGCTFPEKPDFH
# thalamic neurons [7] = experiment: Drug effect on evoked EPSPs (eEPSP) in thalamic slices, current clamp; assay type: cell-based, mouse
# Method: Thalamic slices (300 μm) from 14-18 day old mouse pups (FVB/NJ mice; Jackson Laboratory) were cut on a Vibratome (TPI) in an ice-cold cutting solution containing (in mM): 2.5 KCl, 1.25 NaH2PO4, 10 MgSO4, 5 CaCl2, 10 glucose, 26 NaHCO3, 230 sucrose and gassed with 5% CO2 and 95% O2. Slices were incubated for a minimum of 1 hr in a slice solution containing (in mM): 126 NaCl, 2.5 KCl, 1.25 NaH2PO4, 2 MgCl2, 2 CaCl2, 10 glucose, and 26 NaHCO3, pH 7.4, and gassed with 5% CO2 and 95% O2 at room temperature. The slices were transferred to a recording chamber (1.5 ml) perfused with aCSF at room temperature or 32° C. Whole-cell current clamp recordings were obtained using a 700B Multiclamp amplifier (Axon Instruments) (Jiang et al., “A Kainate Receptor Increases The Efficacy of Gabaergic Synapses,” Neuron 30:503-13 (2001); Tian et al., “An Astrocytic Basis of Epilepsy,” Nat Med 11:973-81 (2005), which are hereby incorporated by reference in their entirety). Concentric bipolar stimulating electrodes (FHC) were placed ˜100-400 μm ventromedial to the patched VL thalamic neuron. Stimulation was delivered through a constant isolated current source (ISO-Flex stimulus isolator with a Master-8-vp stimulator; AMPI) and consisted of monophasic 60 μs square pulses of varying amplitude (15, 25, 50 μA) and frequency (25, 75, 125, 200 Hz). Based upon maximum current amplitude and the surface area of the electrode, it is estimated that the maximum charge density was in the range of ˜1-10 μC/cm^2. The artifacts of the HFS signal were blanked and staggered to allow continuous observation of the 2.5 Hz signal (Anderson et al., “Selective Attenuation of Afferent Synaptic Transmission as a Mechanism of Thalamic Deep Brain Stimulation-Induced Tremor Arrest,” J Neurosci 26:841-50 (2006), which is hereby incorporated by reference in its entirety). Adenosine measurements were detected using needle shaped electrode (Pt/Ir wire) biosensors (Sarissa Biomedical). Calibration was carried out at the beginning and end of each slice experiment in the bath above the slice. Measurements were obtained ˜100 μm from the stimulation electrode in the thalamic slice. […].
# To further analyze the role of adenosine in HFS, the effect of perfusion with an aCSF containing 1-100 μM adenosine in thalamic slices was studied. […]. […] The AMPA receptor antagonist, CNQX could not be tested due to its direct effect on EPSCs (Wang et al., “Astrocytic Ca(2+) Signaling Evoked by Sensory Stimulation in Vivo,” Nat Neurosci 9:816-23 (2006), which is hereby incorporated by reference in its entirety) (FIG. 3G). […]. […]
# harmaline-induced tremor = experiment: Harmaline-induced tremor, intrathalamic delivery by bilateral microdialysis probes; assay type: in vivo, mice; details: for tremor activity: thalamus; for tremor following washout: after cessation of microdialysis of agonist; for time course of depression of tremor: microdialysis perfusion
# Method: Harmaline was administed i.p. 20 min prior to DBS (20-30 mg/kg) (Wilms et al., “Animal Models of Tremor,” Mov Disord 14:557-71 (1999); Martin et al., “Harmaline-Induced Tremor as a Potential Preclinical Screening Method for Essential Tremor Medications,” Mov Disord 20:298-305 (2005), which are hereby incorporated by reference in their entirety). 6-OHDA (3 μg/μl in saline containing 0.1% ascorbic acid) was injected in the right median forebrain bundle (AP: −1.2 mm; ML: ±1.1 mm; DV: −5.0 mm in a volume of 2 μl) (Jolicoeur et al., “Hypokinesia, Rigidity, and Tremor Induced by Hypothalamic 6-OHDA Lesions in The Rat,” Brain Res Bull 26:317-20 (1991), which are hereby incorporated by reference in their entirety) in mice anaesthetized with urethane (1.6 g/kg). Only animals that developed body tremor were included in the study. Tacrine was administered in a dose of 2.5 mg/kg i.p. and induced a robust jaw response with the peak frequency within the 3-5 Hz range (Cousins et al., “Tremulous Jaw Movements Induced by The Acetylcholinesterase Inhibitor Tacrine: Effects of Antiparkinsonian Drugs,” Eur J Pharmacol 322:137-45 (1997), which is hereby incorporated by reference in its entirety). […] For electrode and microdialysis implantation, mice were anaesthetized with a mixture of Ketamine (60 mg/kg) and Xylazine (10 mg/kg) and placed into a stereotactic frame. The skull was exposed and concentric bipolar microelectrodes (SNE-100, KOPF) or microdialysis probes (Bioanalytical Systems, Inc.) were implanted into the ventrolateral thalamic nucleus at the following coordinates: AP: −1.4 mm; ML: ±0.9 mm; DV: −3.7 mm. The electrodes or microdialysis probes were attached to the skull with dental cement. Following 24 hrs recovery, stimulation was delivered through a constant isolated current source (An ISO-Flex stimulus isolator with a Master-8-vp stimulator; AMPI) and consisted of monophasic 60 μs square pulses of varying amplitude (15, 25, 50 μA) and frequency (25, 75, 125, 200 Hz). The electrodes implanted in tremor patients has 4 contacts with a total surface area of 0.24 cm^2, an impedance ˜500 Ohm, and an upper limit of 30 μC/cm^2 in charge density (Kuncel et al., “Selection of Stimulus Parameters for Deep Brain Stimulation,” Clin Neurophysiol 115:2431-41 (2004), which is hereby incorporated by reference in its entirety). In mice, electrodes with a smaller tip (diameter 0.0055-0.250 mm, surface area 0.001-0.05 mm^2) were used and the current amplitude was adjusted to obtain charge density within the clinical range. Microdialysis probes were perfused 24 hrs after implantation using a microinjection pump (Harvard Apparatus Inc. USA) at a rate of 2 μl/min. The perfusion buffer contained (in mM): 138 NaCl, 1.5 K2HPO4, 2 CaCl2, 2 MgCl2, 10 HEPES, pH 7.3. […]. Tremor was recorded by either EMG electrodes placed in the occipital muscles or by the Convuls-1 pressure transducer (Columbus Instruments) in awake freely moving animals. […]. The mice were perfusion-fixed and sectioned on a vibratome (TPI) for confirmation of electrode or microdialysis probe placements.
# […]. Microdialysis probes were inserted bilaterally in thalamus 24-48 hrs prior to administration of harmaline. […].
molecule,measurement,setting,value
N[C@@H](CCCP(=O)(O)O)C(=O)O [APV],effect on HFS-induced depression of eEPSPs (FIG. 3G),thalamic neurons [1],no significant effect
same,HFS-induced change of neuronal membrane potential (depolarization / hyperpolarization),thalamic neurons [2],18.15±6.69 mV
O=C1CCc2cc(OCCCCc3nnnn3C3CCCCC3)ccc2N1 [cilostazol],IC50,adenosine transport; adenosine uptake (Liu et al.),10000 nM
"Nc1ncnc2c1ncn2[C@@H]1O[C@H](COP(=O)(O)CP(=O)(O)OP(=O)(O)O)[C@@H](O)[C@H]1O [α,β-MeATP]",pIC 50,Ecto-ATPase [3],4.5
reactive blue,pIC 50,Ecto-ATPase [4],4.3
same,IC50,Rat Parotid Ecto-ATPase,28000 nM
"COC(=O)C(O)CCn1cnc2c(N)ncnc21 (centres unmarked) [DZ2002, methyl 4-(adenine-9-yl)-2-hydroxybutanoate]",Ki,[5]; read-out: Ki,17.9 nM
N#Cc1cc2[nH]c(=O)c(=O)[nH]c2cc1[N+](=O)[O-] [CNQX],HFS-induced change of neuronal membrane potential (depolarization / hyperpolarization),thalamic neurons [2],15.91±4.53 mV
8-CH2BuS-ATP,Ki,[6],45000 nM
NC(=O)C1CN(CC(=O)Nc2c(Cl)cccc2Cl)CCN1CCCC(c1ccc(F)cc1)c1ccc(F)cc1 (centres unmarked) [mioflazine],Ki,adenosine transport; unit inferred,10 nM
3-deaza-DEA methylester [C3-OMeDEA],Ki,[5]; read-out: Ki,1500 nM
"Nc1nccc2c1ncn2C[C@@H](O)[C@@H](O)C(=O)O [C3-DEA, 3-deaza-DEA]",Ki,[5]; read-out: Ki,1500 nM
Cc1cccc(C)c1NC(=O)CN1CCN(CCCC(c2ccc(F)cc2)c2ccc(F)cc2)CC1 [lidoflazine],Ki,adenosine transport; unit inferred,100 nM
"CCOc1cc2nc(N3CCOCC3)nc(N3CCC(n4c(=O)c5cc(C)ccc5n(C)c4=O)CC3)c2cc1OCC [KF 24345, 3-[1-(6,7-diethoxy-2-morpholinoquinazolin-4-yl)piperidin-4-yl]-1,6-dimethyl-2,4(1H,3H)-quinazolinedione hydrochloride]",Ki,adenosine transport,0.1 to 1 nM
Cc1ncc2n1-c1ccc(Cl)cc1C(c1ccccc1F)=NC2 [midazolam],Ki,adenosine transport; unit inferred,1000 nM
Nc1ncnc2c1c(I)cn2[C@@H]1C[C@H](N)[C@@H](O)[C@H]1O [A-134974],IC50,adenosine kinase; McGaraughty et al.,0.06 nM
Nc1ncnc2c1ncn2[C@@H]1O[C@H](COP(=O)(O)OP(=O)(O)NP(=O)(O)O)[C@@H](O)[C@H]1O [AMP-PNP],pIC 50,Ecto-ATPase [3],4.0
CCCn1cnc2c1c(=O)n(CCCCC(C)=O)c(=O)n2C [Propentofylline],Ki,adenosine transport,10000 to 100000 nM
COc1cc(C(=O)OCCCN2CCCN(CCCOC(=O)c3cc(OC)c(OC)c(OC)c3)CC2)cc(OC)c1OC [dilazep],Ki,adenosine transport,0.1 to 1 nM
"Nc1ncnc2c1c(Br)cn2C1CC(N)C(O)C1O (stereo not drawn) [A-286501, N7-((1′R,2′S,3′R,4′S)-2′,3′-dihydroxy-4′-amino-cyclopentyl)-4-amino-5-bromo-pyrrolo[2,3-a]pyrimidine]",IC50,adenosine kinase,0.47 nM
"O=S(=O)(O)c1cc(N=C=S)ccc1C=Cc1ccc(N=C=S)cc1S(=O)(=O)O [DIDS, 4,4′diisothiocyanatostilbene-2,2′disulphonec acid]",IC50,Rat Parotid Ecto-ATPase,150000 nM
Nc1ncnc2c1ncn2[C@@H]1O[C@H](CO[P@](=O)(O)O[P@](=O)(O)O[P@@](=O)(O)S)[C@@H](O)[C@H]1O [ATPyS],pIC 50,Ecto-ATPase [3],5.2
Nc1ncnc2c1ncn2[C@@H]1O[C@H](CO)[C@@H](O)[C@H]1O [adenosine],EC50,"thalamic neurons [7]; Mus musculus, Neuron, aCSF containing 1-100 μM adenosine, read-out: ED50 for depression of eEPSP amplitude",3350 ± 750 nM
same,maximal reduction of eEPSP amplitude,thalamic neurons [7]; aCSF containing 1-100 μM adenosine,76.13±6.47 % of control values
same,tremor activity,harmaline-induced tremor; adenosine 1-10 mM in microdialysis perfusate,reduced tremor activity with a potency comparable to DBS
same,tremor following washout,harmaline-induced tremor,rebound effect was often observed
same,time course of depression of tremor,harmaline-induced tremor,developed slowly over minutes
"OC[C@H]1O[C@@H](n2cnc3c(NC4CCCC4)nc(Cl)nc32)[C@H](O)[C@@H]1O [CCPA, 2-chloro-N6-cyclopentyladenosine]",depression of eEPSPs,thalamic neurons [7]; 1.0 μM,75.59±4.98%
same,tremor activity,harmaline-induced tremor; CCPA 10-100 μM in microdialysis perfusate,attenuated; also recorded: reduced tremor activity with a potency comparable to DBS
same,tremor following washout,harmaline-induced tremor,rebound effect was often observed
same,time course of depression of tremor,harmaline-induced tremor,developed slowly over minutes
CCCCSc1nc2c(N)ncnc2n1[C@@H]1O[C@H](COP(=O)(O)OP(=O)(O)OP(=O)(O)O)[C@@H](O)[C@H]1O [8-Bus-ATP],Ki,[6],10000 nM
"Nc1ncnc2c1ncn2[C@@H]1O/C(=C\F)[C@@H](O)[C@H]1O [ZDDFA, (Z)-4′,5′-didehydro-5′-deoxy-5′-fluoroadenosine]",Ki,[5],39.9 nM
CCOc1ccc(Nc2ccc(C(=C3C=CC(=[N+](CC)Cc4cccc(S(=O)(=O)[O-])c4)C=C3)c3ccc(N(CC)Cc4cccc(S(=O)(=O)O)c4)cc3)cc2)cc1 [Coomassie brilliant blue R],IC50,Rat Parotid Ecto-ATPase,114000 nM
"Nc1ncnc2c1ncn2C[C@@H](O)[C@@H](O)C(=O)O [DEA, eritadenine[2(R),3(R)-dihydroxy-4-(9-zdenyl)-butyric acid]]",Ki,[5],30 nM
